Literature values in patent publication US9969730B2, “Stable SNS-595 compositions and methods of preparation” (Sunesis Pharmaceuticals, Inc., priority 2009, dated 2018).

Key:
[1] = test system: various cancer cell lines
xenografts = conditions: in vivo
[2] = test system: acute myeloid leukemia and ovarian cancer; conditions: human cancer patients

In the case of `CN[C@H]1CN(c2ccc3c(=O)c(C(=O)O)cn(-c4nccs4)c3n2)C[C@@H]1OC` [SNS-595, (+)-1,4-dihydro-7-[(3S,4S)-3-methoxy-4-methylamino-1-pyrrolidinyl]-4-oxo-1-(2-thiazolyl)-1,8-naphthyridine-3-carboxylic acid], the “preclinical activity against various cancer cell lines” value [1] is given as “preclinical activity”, the “preclinical activity against xenografts” value (xenografts) is given as “preclinical activity” and the “clinical activity in the treatment of acute myeloid leukemia and ovarian cancer” value [2] is given as “clinical activity”.
